We go through 21 compounds from ChEMBL document CHEMBL1123114, “Structure-activity relationships of arylimidazopyridine cardiotonics: discovery and inotropic activity of 2-[2-methoxy-4-(methylsulfinyl)phenyl]-1H-imidazo[4,5-c]pyridine” (1985).

Experiment [1] is filed under the species Felis catus. Nature of the experiment: Compound tested for contractility in isolated cat papillary muscle at 10 e-4 M. It is filed as functional.
Experiment [2] is filed under the species Felis catus. Nature of the experiment: Compound tested for contractility in isolated cat papillary muscle at 10 e-5 M. It is filed as functional.
For experiment [3], the species on record is Felis catus. Put plainly: Response ratio = (percent increase to drug)/(percent increase to 10 E-4 M isoproterenol). It is filed as functional.
The species named for experiment [4] is Felis catus. Put plainly: Response ratio = (percent increase to drug)/(percent increase to 10 E-5 M isoproterenol). It is filed as functional.
In experiment [5] the test system is Canis familiaris. Put plainly: Compound tested for contractility in anesthetized dog when administered intravenously. It is filed as functional. Conditions: Canis lupus familiaris, iv.
For experiment [6], the system named is Canis familiaris. Put plainly: Percent change in heart rate in anesthetized dog. It is filed as functional, Canis lupus familiaris.
The subject of experiment [7] is Canis familiaris. Put plainly: Percent change in mean arterial blood pressure in anesthetized dog. It is filed as functional, Canis lupus familiaris.

A word on the ED50: it is the dose that gives a 50% effect, or the effect in half of the subjects. The low end stands for greater potency, the high end for weaker potency. As to `COc1cc([S+](C)[O-])ccc1-c1nc2cnccc2[nH]1` (stereo not drawn) [ISOMAZOLE], the Control in the experiment filed under Felis catus [1] worked out at 268%; in the experiment listed under Felis catus [2], 172%. Further, the Response ratio in the experiment listed under Felis catus [3] is 2.33; in the experiment filed under Felis catus [4], 1. This compound also gave an ED50 in the experiment with Canis familiaris [5] of 0.03 mg/kg. Moreover, the results for the Change in the experiment on Canis familiaris [6] and in the experiment with Canis familiaris [7] were 7% and -1%, respectively.

`COc1ccc(-c2nc3ccc[nH]c-3n2)c(OC)c1`: the Control is listed as 264% in the experiment listed under Felis catus [1] and 172% in the experiment filed under Felis catus [2]. Further, the Response ratio in the experiment listed under Felis catus [3] is recorded as 2.27; in the experiment listed under Felis catus [4] it was 1. Also, in the experiment with Canis familiaris [5], it took a dose of 0.8 mg/kg to reach the 50% effect level (ED50). In addition, the Change in the experiment on Canis familiaris [6] was 18%; in the experiment with Canis familiaris [7], -22%.

Turning to `COc1ccc(-c2nc3cc[nH]cc-3n2)cc1`, the results for the Control in the experiment listed under Felis catus [1] and in the experiment listed under Felis catus [2] were 205% and 104%, respectively. For the same compound, the Response ratio worked out at 1.46 in the experiment filed under Felis catus [3] and 0.07 in the experiment listed under Felis catus [4]. In addition, the ED50 in the experiment on Canis familiaris [5] was found to be 1.7 mg/kg. Besides, the Change with Canis familiaris [6] is listed as 17%; with Canis familiaris [7], -14%.

With `CCCOc1cc(OC)ccc1-c1nc2cc[nH]cc-2n1`, the values for the Control in the experiment filed under Felis catus [1] and in the experiment listed under Felis catus [2] were 336% and 134%, respectively. Moreover, the figures for the Response ratio in the experiment listed under Felis catus [3] and in the experiment listed under Felis catus [4] were 3.27 and 0.47, respectively. The compound further yielded an ED50 with Canis familiaris [5] of 1.3 mg/kg. Further, the Change with Canis familiaris [6] is on record as -7%; in the experiment with Canis familiaris [7], -59%.

Turning to `COc1cc([S+](C)[O-])ccc1-c1nc2cccnc2[nH]1` (stereo not drawn) [SULMAZOLE], the Control in the experiment listed under Felis catus [1] turned out to be 156%; in the experiment filed under Felis catus [2], 112%. For the same compound, the Response ratio is on record as 0.78 in the experiment filed under Felis catus [3] and 0.16 in the experiment filed under Felis catus [4]. In the experiment with Canis familiaris [5], this compound yielded an ED50 of 0.3 mg/kg. In addition, the Change is 13% with Canis familiaris [6] and -10% with Canis familiaris [7].

Consider `CCCOc1cc([S+](C)[O-])ccc1-c1nc2cc[nH]cc-2n1` (stereo not drawn), for which the Control in the experiment listed under Felis catus [1] is 159%; in the experiment listed under Felis catus [2], 122%. Also, the Response ratio in the experiment listed under Felis catus [3] came out at 0.82; in the experiment listed under Felis catus [4], 0.3. In the experiment on Canis familiaris [5], this compound gave an ED50 of 1 mg/kg. The Change is listed as 10% in the experiment on Canis familiaris [6] and -33% with Canis familiaris [7].

Consider `Cc1ccc(-c2nc3cc[nH]cc-3n2)c(C)c1`, for which the Control in the experiment listed under Felis catus [1] was determined as 100%; in the experiment filed under Felis catus [2], 93%. The figures for the Response ratio in the experiment listed under Felis catus [3] and in the experiment listed under Felis catus [4] were 0 and -0.1, respectively. This compound also had an ED50 in the experiment on Canis familiaris [5] of 1.4 mg/kg. Moreover, the Change with Canis familiaris [6] is listed as 12%; in the experiment with Canis familiaris [7] it was -24%.

Take `COc1cc(C)ccc1-c1nc2cc[nH]cc-2n1`: the Control in the experiment filed under Felis catus [1] came to 202%; in the experiment filed under Felis catus [2], 117%. The Response ratio stood at 1.42 in the experiment filed under Felis catus [3] and 0.24 in the experiment filed under Felis catus [4]. In the experiment on Canis familiaris [5], this compound registered an ED50 of 0.28 mg/kg. Also, the Change in the experiment with Canis familiaris [6] is reported as 8%; in the experiment on Canis familiaris [7] it was -7%.

Consider `COc1ccc(-c2nc3cc[nH]cc-3n2)c(OC)c1`, for which the Control in the experiment listed under Felis catus [1] is given as 172%; in the experiment filed under Felis catus [2], 158%. Further, the Response ratio worked out at 1 in the experiment listed under Felis catus [3] and 0.81 in the experiment listed under Felis catus [4]. This compound displayed an ED50 in the experiment with Canis familiaris [5] of 0.3 mg/kg. The Change in the experiment on Canis familiaris [6] is 9%; in the experiment on Canis familiaris [7], -17%.

As to `COc1cc(C(F)(F)F)ccc1-c1nc2cc[nH]cc-2n1`, the Control in the experiment filed under Felis catus [1] amounted to 135%; in the experiment listed under Felis catus [2] it was 139%. Besides, the Response ratio is listed as 0.49 in the experiment listed under Felis catus [3] and 0.54 in the experiment filed under Felis catus [4]. Besides, the ED50 with Canis familiaris [5] is 0.009 mg/kg. Further, the Change in the experiment on Canis familiaris [6] is 10%; with Canis familiaris [7] it was -12%.

In the case of `Cc1cccc(-c2nc3cc[nH]cc-3n2)c1`, the values for the Control in the experiment listed under Felis catus [1] and in the experiment filed under Felis catus [2] were 195% and 118%, respectively. Besides, the Response ratio turned out to be 1.32 in the experiment listed under Felis catus [3] and 0.25 in the experiment filed under Felis catus [4]. Besides, in the experiment on Canis familiaris [5], the ED50 amounted to 1 mg/kg. For the same compound, the Change in the experiment on Canis familiaris [6] is recorded as 17%; in the experiment on Canis familiaris [7], -20%.

Turning to `COc1cc(S(C)(=O)=O)ccc1-c1nc2ccc[nH]c-2n1`, the Control worked out at 129% in the experiment listed under Felis catus [1] and 120% in the experiment listed under Felis catus [2]. Moreover, the Response ratio in the experiment listed under Felis catus [3] worked out at 0.4; in the experiment listed under Felis catus [4], 0.28. Moreover, in the experiment with Canis familiaris [5], the 50% effect level (ED50) was put at a dose of 0.4 mg/kg. Further, the Change with Canis familiaris [6] is on record as 10%; in the experiment with Canis familiaris [7], -20%.

For the compound `Cc1ccc(-c2nc3cc[nH]cc-3n2)cc1C`, the Control came to 226% in the experiment listed under Felis catus [1] and 133% in the experiment filed under Felis catus [2]. Also, the Response ratio is on record as 1.75 in the experiment filed under Felis catus [3] and 0.46 in the experiment filed under Felis catus [4]. The ED50 in the experiment with Canis familiaris [5] is 5.2 mg/kg. For the same compound, the Change was 0% in the experiment with Canis familiaris [6] and -53% in the experiment on Canis familiaris [7].

Turning to `COc1ccc(-c2nc3cc[nH]cc-3n2)c(OCC[S+](C)[O-])c1` (stereo not drawn), the Control turned out to be 186% in the experiment filed under Felis catus [1] and 123% in the experiment filed under Felis catus [2]. For the same compound, the Response ratio in the experiment listed under Felis catus [3] came to 1.19; in the experiment listed under Felis catus [4] it was 0.32. In addition, the ED50 in the experiment with Canis familiaris [5] was 5.2 mg/kg. In addition, the Change is -4% in the experiment with Canis familiaris [6] and -37% with Canis familiaris [7].

`CSc1ccc(-c2nc3cc[nH]cc-3n2)cc1`: the Control in the experiment listed under Felis catus [1] came to 212%; in the experiment filed under Felis catus [2], 115%. Further, the Response ratio was 1.55 in the experiment listed under Felis catus [3] and 0.21 in the experiment listed under Felis catus [4]. The same compound had an ED50 with Canis familiaris [5] of 4 mg/kg. Besides, the Change with Canis familiaris [6] was 0%; with Canis familiaris [7] it was -15%.

For the compound `c1ccc(-c2nc3ccc[nH]c-3n2)cc1`, the Control in the experiment filed under Felis catus [1] is recorded as 112%; in the experiment filed under Felis catus [2], 101%. For the same compound, the Response ratio in the experiment filed under Felis catus [3] was determined as 0.15; in the experiment listed under Felis catus [4], 0.01. It took a dose of 8 mg/kg to reach the 50% effect level with Canis familiaris [5] (ED50). Also, the Change with Canis familiaris [6] is given as 7%; with Canis familiaris [7] it was -36%.

In the case of `Cc1ccccc1-c1nc2cc[nH]cc-2n1`, the Control in the experiment listed under Felis catus [1] is 188%; in the experiment listed under Felis catus [2] it was 106%. The Response ratio in the experiment listed under Felis catus [3] is on record as 1.22; in the experiment filed under Felis catus [4], 0.09. In the experiment on Canis familiaris [5], this compound returned an ED50 of 2.2 mg/kg. The Change in the experiment with Canis familiaris [6] is given as 24%; in the experiment with Canis familiaris [7] it was -20%.

Turning to `COc1cc(SC)ccc1-c1nc2cc[nH]cc-2n1`, the Control turned out to be 142% in the experiment listed under Felis catus [1] and 143% in the experiment listed under Felis catus [2]. Besides, the Response ratio is recorded as 0.59 in the experiment filed under Felis catus [3] and 0.6 in the experiment filed under Felis catus [4]. In the experiment with Canis familiaris [5], this compound displayed an ED50 of 0.2 mg/kg. Besides, the Change is recorded as 9% in the experiment on Canis familiaris [6] and -17% with Canis familiaris [7].

`COc1ccc(-c2nc3c[nH]cnc-3n2)c(OC)c1`: the figures for the Control in the experiment filed under Felis catus [1] and in the experiment listed under Felis catus [2] were 215% and 117%, respectively. Further, the values for the Response ratio in the experiment listed under Felis catus [3] and in the experiment listed under Felis catus [4] were 1.59 and 0.24, respectively. For the same compound, in the experiment with Canis familiaris [5], the ED50 is 0.3 mg/kg. Besides, the Change with Canis familiaris [6] is 7%; with Canis familiaris [7] it was -15%.

As for `Nc1cc(-c2ccncc2)c[nH]c1=O` [INAMRINONE], the Control was found to be 190% in the experiment listed under Felis catus [1] and 143% in the experiment listed under Felis catus [2]. Further, the Response ratio in the experiment listed under Felis catus [3] is reported as 1.25; in the experiment filed under Felis catus [4] it was 0.61. Further, the ED50 in the experiment on Canis familiaris [5] came out at 1.3 mg/kg. Also, the Change was 11% in the experiment with Canis familiaris [6] and -9% in the experiment with Canis familiaris [7].

Compound `Cc1cccc(-c2nc3ccc[nH]c-3n2)c1` had an ED50 in the experiment with Canis familiaris [5] of 2.8 mg/kg. Further, the results for the Change in the experiment with Canis familiaris [6] and with Canis familiaris [7] were 18% and -27%, respectively.
